Assay results published in the supplement of paper PMC10949913.

How the values were obtained:
Assay in all cases: area under concentration-response curve (viability) (AUC (a.u.)); higher = less active
Conditions in all cases: 48 h
NCI-H295R = tested on: NCI-H295R
Outline: (§1)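 Three adrenocortical carcinoma cell lines were plated in 1,536-well plates at 500–1,000 cells/well in 5 µL medium, and 23 nL of each library compound was added at 11 concentrations. After 48 h, CellTiter-Glo was applied for 15 minutes at room temperature before luminescence was read. Each plate's signals were normalised to vehicle and empty-well controls. AC50 and area under the curve were taken from fitted concentration-response curves, with only inhibitory or non-responding curve classes retained.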

CU-ACC2 = tested on: CU-ACC2
Outline: as §1

CU-ACC1 = tested on: CU-ACC1
Outline: as §1

Row | SMILES | area under concentration-response curve (NCI-H295R) | area under concentration-response curve (CU-ACC2) | area under concentration-response curve (CU-ACC1)
1 | OC1=C(Cl)C=C(N\C2=C(\C(=O)NC2=O)C3=C(C=CC=C3)[N+]([O-])=O)C=C1 | 507 | 475 | 502
2 | C[Se]CCC(N)C(=O)O (centres undefined) | 479 | 550 | 540
3 | C=CC[N+]1([C@H]2C[C@H]3[C@@H]4CC[C@H]5C[C@H](O)[C@@H](N6CCOCC6)C[C@]5(C)[C@H]4CC[C@]3(C)[C@H]2OC(C)=O)CCCC1 | 610 | 639 | 597
4 | O=C(NOCC(O)CO)c1ccc(F)c(F)c1Nc1ccc(I)cc1F (centres undefined) | 488 | 459 | 329
5 | N#C/N=C(\NCCCCCCOc1ccc(Cl)cc1)Nc1ccncc1 | 425 | 367 | 269
6 | Cn1ncc2cc(-c3cnc(N)c(Cl)c3N3CCC4(CCNC4=O)CC3)ccc21 | 536 | 484 | 475
7 | CC(C)OC(=O)C(C)(C)Oc1ccc(C(=O)c2ccc(Cl)cc2)cc1 | 517 | 608 | 593
8 | COc1ccccc1N1CCN(CC(O)COc2cccc3ccccc23)CC1 (centres undefined) | 501 | 515 | 458
9 | CN(C)C1=CC(=CC=C1)C\2=C\3C(=O)N(NC3=C/C(=O)N2C)C4=CC=CC=C4Cl | 533 | 512 | 513
10 | S=P(N1CC1)(N1CC1)N1CC1 | 562 | 590 | 496
11 | CCN1/C(=C/C(C)=O)Sc2ccc(OC)cc21 | 515 | 569 | 467
12 | CN1\C(=C(\O)C2=C(C=CS2)[S+]1([O-])=O)C(=O)NC3=CC=CC=N3 | 573 | 616 | 548
13 | Clc1cccc(C(c2ccc3nc[nH]c3c2)n2ccnc2)c1 (centres undefined) | 491 | 633 | 534
14 | O=C1NC(=O)/C(=C/c2cccc(C(F)(F)F)c2)S1 | 449 | 511 | 463
15 | OC(CCN1CCCCC1)(C2CC\3CC2\C=C3)C4=CC=CC=C4 (centres undefined) | 519 | 582 | 522
16 | OC(c1ccc(-c2ccc(CN3CCN(Cc4ccncc4)CC3)cc2)c(F)c1)(C(F)(F)F)C(F)(F)F | 581 | 638 | 584
17 | O=C(Oc1ccc([N+](=O)[O-])cc1)N1CCC(C(O)(c2ccc3c(c2)OCO3)c2ccc3c(c2)OCO3)CC1 | 535 | 575 | 495
18 | C[C@]12CC[C@H]3[C@@H](CCC4=CC(=O)CC[C@@H]43)[C@@H]1CC[C@@H]2OC(=O)CCc1ccccc1 | 498 | 534 | 461
19 | CCC[C@H](N[C@@H](C)C(=O)N1[C@H](C(=O)O)C[C@@H]2CCCC[C@@H]21)C(=O)OCC | 548 | 589 | 531
20 | NC(=O)[C@@H](CC1CC1)[C@@H](CCC(F)(F)F)C(=O)N[C@H]2\N=C(C3=CC=CC=C3)/C4=CC=CC(=C4NC2=O)F | 541 | 573 | 543
21 | COc1cc(C(=O)N[S+](=O)([O-])c2ccccc2C)ccc1Cc1cn(C)c2ccc(NC(=O)OC3CCCC3)cc12 | 488 | 595 | 513
22 | CC1=C(C)C\2=C(S1)[N]3C(=NN=C3C(CC(N)=O)\N=C2C4=CC=C(Cl)C=C4)C (centres undefined) | 431 | 480 | 439
23 | Cc1cccc(C)c1NC(=O)CN1CCCC1=O | 520 | 544 | 486
24 | Cc1c(F)cc(C(=O)NC2CC2)cc1-c1ccc(C(=O)NCC(C)(C)C)cn1 | 394 | 427 | 389

Row | SMILES | area under concentration-response curve (NCI-H295R) | area under concentration-response curve (CU-ACC2) | area under concentration-response curve (CU-ACC1)
25 | CC1=CC(=C(O)C(=C1C\C2=N\CCN2)C)C(C)(C)C | 496 | 579 | 515
26 | C\C1=N\N(C(=O)C1)C2=CC=CC=C2 | 478 | 585 | 492
27 | COc1ccc2cc(OCC3(C(=O)O)CN(C(=O)c4ccc(F)cc4)C3)ccc2c1 | 552 | 606 | 556
28 | Nc1nc(OCc2ccccc2)c2nc[nH]c2n1 | 441 | 479 | 432
29 | C=C1[C@H](OC(=O)/C=C(\C)CC)C[C@@H](C(C)C)[C@@H]2[C@H]([C@@H](C)OC(C)=O)C(=O)C[C@@H]12 | 557 | 617 | 527
30 | O=C(CBr)N1CC([N+](=O)[O-])([N+](=O)[O-])C1 | 439 | 464 | 454
31 | CCC(=O)NCC[C@@H]1CCc2ccc3c(c21)CCO3 | 531 | 564 | 490
32 | C[C@H](CCC(=O)O)[C@H]1CC[C@H]2[C@@H]3[C@@H](O)C[C@@H]4C[C@H](O)CC[C@]4(C)[C@H]3CC[C@]12C | 538 | 496 | 519
33 | O=C1[C@H](CC[C@H](O)c2ccc(F)cc2)[C@@H](c2ccc(O)cc2)N1c1ccc(F)cc1 | 565 | 650 | 536
34 | NC(=O)c1cnc(-c2ccc(C3(N)CCC3)cc2)c(-c2ccccc2)c1 | 554 | 648 | 537
35 | C[C@]12CC[C@@H]3c4ccc(OC(=O)N(CCCl)CCCl)cc4CC[C@H]3[C@@H]1CC[C@@H]2OP(=O)([O-])[O-] | 533 | 466 | 489
36 | COc1ccc([S+](=O)([O-])N[C@@H](CNc2nc(C)nc(N3CCC(c4ccc5c(n4)NCCC5)CC3)c2C)C(=O)O)cc1 | 589 | 441 | 554
37 | O=C(O)c1cccc(-c2noc(-c3ccccc3F)n2)c1 | 451 | 559 | 477
38 | CC(C)(CNC(=O)c1cccc(-c2noc(C(F)(F)F)n2)c1)c1coc(-c2ccccc2)n1 | 506 | 585 | 558
39 | COc1cc2ncnc(Nc3ccc(O)c(Br)c3)c2cc1OC | 528 | 602 | 479
40 | CN1CCN(C(=O)[C@H]2[C@@H](C(=O)O)[C@H]3CC[C@@H]2O3)CC1 | 620 | 699 | 628
41 | Nc1cccc2c1C(=O)N(C1CCC(=O)NC1=O)C2=O (centres undefined) | 567 | 645 | 520
42 | COc1cc(NC(=O)c2ccc(-c3ccc(Cl)cc3)o2)cc(OC)c1 | 536 | 562 | 469
43 | CCc1nc(N)nc(N)c1-c1ccc(Cl)cc1 | 521 | 564 | 483
44 | C[C@]12CC[C@@H]3c4ccc(O)cc4C[C@@H](CCCCCCCCC[S+]([O-])CCCC(F)(F)C(F)(F)F)[C@H]3[C@@H]1CC[C@@H]2O (some centres undefined) | 530 | 564 | 391
45 | OC1=CC=C(C=C1)\C2=C\OC3=C(C(=CC(=C3)O)O)C2=O | 555 | 499 | 435
46 | CO[C@H](C1COC1)C2=C(Cl)C3=C(CCN(C\C4=C(OC)\C=C(\C)NC4=O)C3=O)C(=C2)Cl | 536 | 579 | 496
47 | Cn1c(=O)c2[nH]cnc2n(C)c1=O | 469 | 555 | 447
48 | CNC(=O)[C@@H](NC(=O)[C@H](CC(C)C)[C@H](O)C(=O)NO)C(C)(C)C | 563 | 615 | 513
